From patent US12102667B2, “Polypeptides and antibiotics against gram-negative bacterium comprising the same” (priority 2021, dated 2024)
Entries after “also recorded” stand apart in the source; their conditions may differ. Where two headings read alike, the source gives them in different places.

Columns and labels:
[1] = tested on: K. pneumoniae; settings: K. pneumoniae CCARM 10143; cited from earlier work
[2] = tested on: E. coli; settings: cited from earlier work
[3] = tested on: E. coli; test: Checkerboard assay (MIC in combination, FIC index); format: cell-based, Escherichia coli; parameters: MIC of colistin: unit not given here; settings: for MIC of colistin: colistin-resistant E. coli FORC81
Experimental: LNT113 was vertically diluted 2-fold and the antibiotic was serially diluted horizontally in a 96-well plate. Bacterium at a concentration of 10^6 CFU/ml were added to each well in a CAA medium. […] The fractional inhibitory concentration (FIC) for the LNT113 or antibiotic was calculated by dividing the MIC of two drugs by combining it with the MIC of each drug alone. […] The FICI was considered as a synergistic effect ≤0.5, an additive >0.5 ˜≤1, an independent effect (indifference)>1.0 ˜≤2, and an antagonistic effect (antagonism) >2.

[4] = tested on: E. coli; test: Antibacterial activity analysis (colony count after 2 hours in buffer); format: cell-based, Escherichia coli; settings: 2 μM
Experimental: (§1) The antibacterial activity of the purified protein was tested for E. coli and various K. pneumoniae strains. The bacterium were grown to an exponential phase (OD600=0.5) and harvested by centrifugation at 12,000×g for 3 minutes. Then, the pellets were washed with reaction buffer solution (20 mM Tris-HCl, pH 7.5) and diluted to about 10^6 cells/ml in the buffer solution. Then, 100 μl bacterial suspension was mixed with the purified endolysin of 100 μl in the reaction buffer solution and incubated at 37° C. for 2 hours. Finally, the mixture was diluted with PBS and loaded on an LB plate. After culturing at 37° C. overnight, the bacterial colonies were counted. All the analysis was performed in triplicate.
(§2) The same reaction was performed for the selected subject bacterium in 20 mM HEPES-NaOH, 150 mM NaCl [pH 7.4], and the unique antibacterial activity of Tris and dependence of endolysin for turgor pressure were excluded (FIG. 10a and FIG. 10b). […] The bacterial cells grown geometrically were cultured with 2 μM endolysin in low tonicity buffers (20 mM Tris-HCl, pH 7.5 or 20 mM HEPES, pH 7.5) or high tonicity buffers (buffer solution comprising 150 mM NaCl) at 37° C. for 2 hours. The cells treated with storage buffer solution (20 mM Tris-HCl, pH 7.5, 150 mM NaCl buffer solution (pH 7.5)) were used as a negative control group. The dotted line represents the detection limit (1 Log CFU/ml).
For this, endolysin EC340 at a concentration of 2 μM and each test bacterium were added to reaction buffer (20 mM Tris-Cl, pH 7.5) so that the final concentration was to be 200 μl, and were left at 37° C. for 2 hours. After 2 hours, the number of colonies of Acinetobacter baumannii, Pseudomonas aeruginosa and Escherichia coli was confirmed, and the result was shown in FIG. 3.

[5] = tested on: K. pneumoniae; test: as above; format: cell-based, Klebsiella pneumoniae; settings: 2 μM
Experimental: as §1, §2

[6] = antibiotic combined with LNT113, E. coli ATCC 8739
[7] = antibiotic combined with LNT113, E. coli ATCC 51739
[8] = antibiotic combined with LNT113, E. coli CCARM 1A746
[9] = antibiotic combined with LNT113, E. coli FORC81
[10] = antibiotic combined with LNT113, E. coli UPEC 3150
[11] = antibiotic combined with LNT113, E. coli strains overall

CC1(C)S[C@@H]2[C@H](NC(=O)[C@H](N)c3ccccc3)C(=O)N2[C@H]1C(=O)O [Ampicillin]
MIC of antibiotics [1]: ≥128 µg/mL
MIC of antibiotics ([2]; E. coli CCARM 1A746): ≥128 µg/mL
MIC of antibiotics ([2]; E. coli CCARM 1B684): ≥128 µg/mL

CC[C@H]1OC(=O)[C@H](C)[C@@H](O[C@H]2C[C@@](C)(OC)[C@@H](O)[C@H](C)O2)[C@H](C)[C@@H](O[C@@H]2O[C@H](C)C[C@H](N(C)C)[C@H]2O)[C@](C)(O)C[C@@H](C)CN(C)[C@H](C)[C@@H](O)[C@]1(C)O [Azithromycin]
Fractional inhibitory concentration index (FICI) of LNT113 using various antibiotics [3, 6]: 1
Fractional inhibitory concentration index (FICI) of LNT113 using various antibiotics [3, 7]: 0.75
Fractional inhibitory concentration index (FICI) of LNT113 using various antibiotics [3, 8]: 1
Fractional inhibitory concentration index (FICI) of LNT113 using various antibiotics [3, 9]: 2
Fractional inhibitory concentration index (FICI) of LNT113 using various antibiotics [3, 10]: 0.75

CC(C)(O/N=C(\C(=O)N[C@@H]1C(=O)N2C(C(=O)[O-])=C(C[n+]3ccccc3)CS[C@H]12)c1csc(N)n1)C(=O)O [Ceftazidime]
Fractional inhibitory concentration index (FICI) of LNT113 using various antibiotics [3, 6]: 2
Fractional inhibitory concentration index (FICI) of LNT113 using various antibiotics [3, 7]: 2
Fractional inhibitory concentration index (FICI) of LNT113 using various antibiotics [3, 8]: 2
Fractional inhibitory concentration index (FICI) of LNT113 using various antibiotics [3, 9]: 1
Fractional inhibitory concentration index (FICI) of LNT113 using various antibiotics [3, 10]: 1
combination effect with LNT113, in words [3, 11]: Neither ceftazidime and kanamycin showed a synergistic or additive effect; also recorded: little additive effect

O=C(N[C@H](CO)[C@H](O)c1ccc([N+](=O)[O-])cc1)C(Cl)Cl [Chloramphenicol]
Fractional inhibitory concentration index (FICI) of LNT113 using various antibiotics [3, 6]: 1
Fractional inhibitory concentration index (FICI) of LNT113 using various antibiotics [3, 7]: 0.75
Fractional inhibitory concentration index (FICI) of LNT113 using various antibiotics [3, 9]: 2
Fractional inhibitory concentration index (FICI) of LNT113 using various antibiotics [3, 10]: 0.75

NC[C@H]1O[C@H](O[C@H]2[C@H](O)[C@@H](O[C@H]3O[C@H](CO)[C@@H](O)[C@H](N)[C@H]3O)[C@H](N)C[C@@H]2N)[C@H](O)[C@@H](O)[C@@H]1O [Kanamycin]
Fractional inhibitory concentration index (FICI) of LNT113 using various antibiotics [3, 6]: 2
Fractional inhibitory concentration index (FICI) of LNT113 using various antibiotics [3, 7]: 1
Fractional inhibitory concentration index (FICI) of LNT113 using various antibiotics [3, 9]: 1
Fractional inhibitory concentration index (FICI) of LNT113 using various antibiotics [3, 10]: 1

C[C@@H](O)[C@H]1C(=O)N2C(C(=O)O)=C(S[C@@H]3CN[C@H](C(=O)N(C)C)C3)[C@H](C)[C@H]12 [Meropenem]
Fractional inhibitory concentration index (FICI) of LNT113 using various antibiotics [3, 6]: 0.63
Fractional inhibitory concentration index (FICI) of LNT113 using various antibiotics [3, 7]: 0.75
Fractional inhibitory concentration index (FICI) of LNT113 using various antibiotics [3, 8]: 1
Fractional inhibitory concentration index (FICI) of LNT113 using various antibiotics [3, 9]: 2
Fractional inhibitory concentration index (FICI) of LNT113 using various antibiotics [3, 10]: 1
combination effect with LNT113, in words [3, 11]: slight additive effect

CCn1cc(C(=O)O)c(=O)c2cc(F)c(N3CCNCC3)cc21 [Norfloxacin]
MIC of antibiotics ([2]; E. coli CCARM 1A746): ≥128 µg/mL
MIC of antibiotics ([2]; E. coli CCARM 1B684): 32 µg/mL

[H]/N=C(/N)N[C@H]1[C@H](O)[C@@H](O)[C@H](O[C@@H]2O[C@@H](C)[C@](O)(C=O)[C@H]2O[C@@H]2O[C@@H](CO)[C@H](O)[C@@H](O)[C@@H]2NC)[C@@H](N/C(N)=N\[H])[C@@H]1O [Streptomycin]
MIC of antibiotics ([2]; E. coli CCARM 1A746): ≥128 µg/mL
MIC of antibiotics ([2]; E. coli CCARM 1B684): ≥128 µg/mL

CN(C)c1cc(NC(=O)CNC(C)(C)C)c(O)c2c1C[C@H]1C[C@H]3[C@H](N(C)C)C(O)=C(C(N)=O)C(=O)[C@@]3(O)C(O)=C1C2=O [Tigecycline]
Fractional inhibitory concentration index (FICI) of LNT113 using various antibiotics [3, 6]: 2
Fractional inhibitory concentration index (FICI) of LNT113 using various antibiotics [3, 7]: 0.63
Fractional inhibitory concentration index (FICI) of LNT113 using various antibiotics [3, 8]: 2
Fractional inhibitory concentration index (FICI) of LNT113 using various antibiotics [3, 9]: 2
Fractional inhibitory concentration index (FICI) of LNT113 using various antibiotics [3, 10]: 0.63

Colistin
decrease of bacterial cells ([4]; colistin-resistant E. coli FORC81, 2 hours): 1.2 log
strains in which the synergistic effect with LNT113 was observed ([3]; 5 different E. coli strains): 4 strains among 5 strains
MIC of endolysin combined with colistin: Colistin ([3]; E. coli ATCC8738, EC340 0): 2 µg/mL
MIC of endolysin combined with colistin: Colistin ([3]; E. coli ATCC8738, EC340 16): 0.125 µg/mL
MIC of endolysin combined with colistin: Colistin ([3]; E. coli ATCC8738, EC340 32): 0.0625 µg/mL
MIC of endolysin combined with colistin: Colistin ([3]; E. coli ATCC8738, EC340 <2): 0.25 µg/mL
MIC of endolysin combined with colistin: Colistin ([3]; E. coli ATCC8738, mtEC340 0): 2 µg/mL
MIC of endolysin combined with colistin: Colistin ([3]; E. coli ATCC8738, mtEC340 16): 0.125 µg/mL
MIC of endolysin combined with colistin: Colistin ([3]; E. coli ATCC8738, mtEC340 32): 0.125 µg/mL
MIC of endolysin combined with colistin: Colistin ([3]; E. coli ATCC8738, mtEC340 <2): 0.25 µg/mL
combination effect with LNT113 (FICI class) ([3]; E. coli ATCC 8739): synergistic effect (a synergistic effect ≤0.5)
MIC of endolysin combined with colistin: Colistin ([3]; E. coli ATOCB739, LNT113 0): 2 µg/mL
MIC of endolysin combined with colistin: Colistin ([3]; E. coli ATOCB739, LNT113 1): 1 µg/mL
MIC of endolysin combined with colistin: Colistin ([3]; E. coli ATOCB739, LNT113 2): 0.5 µg/mL
MIC of endolysin combined with colistin: Colistin ([3]; E. coli ATOCB739, LNT113 4): 0.0625 µg/mL
combination effect with LNT113 (FICI class) ([3]; E. coli FORC81): synergistic effect (a synergistic effect ≤0.5)
MIC of endolysin combined with colistin: Colistin ([3]; E. coli FORC81, LNT113 0): 16 µg/mL
MIC of endolysin combined with colistin: Colistin ([3]; E. coli FORC81, LNT113 2): 4 µg/mL
MIC of endolysin combined with colistin: Colistin ([3]; E. coli FORC81, LNT113 4): 1 µg/mL
MIC of endolysin combined with colistin: Colistin ([3]; E. coli FORC81, LNT113 <0.25): 8 µg/mL
combination effect with LNT113 (FICI class) ([3]; E. coli UPEC 3150): synergistic effect (a synergistic effect ≤0.5)
MIC of endolysin combined with colistin: Colistin ([3]; E. coli UPEC3150, LNT113 0): 4 µg/mL
MIC of endolysin combined with colistin: Colistin ([3]; E. coli UPEC3150, LNT113 1): 2 µg/mL
MIC of endolysin combined with colistin: Colistin ([3]; E. coli UPEC3150, LNT113 2): 0.5 µg/mL
MIC of endolysin combined with colistin: Colistin ([3]; E. coli UPEC3150, LNT113 4): 0.0625 µg/mL
MIC of colistin in presence of endolysin EC340 or mtEC340 ([3]; Table 3): significantly reduced
Fractional inhibitory concentration index (FICI) of LNT113 using various antibiotics [3, 6]: 0.25
Fractional inhibitory concentration index (FICI) of LNT113 using various antibiotics [3, 7]: 0.5
Fractional inhibitory concentration index (FICI) of LNT113 using various antibiotics [3, 8]: 0.63
Fractional inhibitory concentration index (FICI) of LNT113 using various antibiotics [3, 9]: 0.5
Fractional inhibitory concentration index (FICI) of LNT113 using various antibiotics [3, 10]: 0.38
Fractional inhibitory concentration index (FICI) of LNT113 using various antibiotics ([3]; antibiotic combined with LNT113, E. coli UPEC 3150, listed as colistin): 0.375
combination effect with LNT113 (FICI class) [3, 11]: synergistic effect (a synergistic effect ≤0.5)
MIC of colistin ([3]; colistin alone): 16
MIC of colistin ([3]; in combination with LNT113 of 4 mg/ml): 1

B1: mtEC340: mutant EC340 with H39S, D43H, T45E, A73V, A81S, T101A and I113V (protein)
chain: VSRNISNNGIKFTAAFEGFRGTAYRATPNEKYLTIGYGSYGPHVEPGKTITPGQGLLLLNRDMAKAVAAVDAVAHHSLTQSQFDAVCDLVYNAGAGVIAAATGTGKALRSGDVATLRAKLALFINQNGKPLLGLRRRTAGRLALFDGKPWQEAEAIGRAVKG
modifications: synthetic_mtEC340
notes: mutant EC340 with H39S, D43H, T45E, A73V, A81S, T101A and I113V
antibacterial activity (number of bacterium) ([4]; E. coli ATCC8739, ATCC25922, CCARM1A746, CCARM1B684, 2 hours, Tris-HCl pH 7.5): more excellent antibacterial activity
effect of adding NaCl on antibacterial activity ([4]; E. coli ATCC 8739, Tris or Hepes buffer with 150 mM NaCl): almost inactivated
increase of antibacterial activity versus EC340 ([4]; various E. coli strains, 2 hours): up to 1 log
antibacterial activity (number of bacterium) ([5]; K. pneumoniae ATCC700603, KCTC2208, CCARM10143, F85, 2 hours, Tris-HCl pH 7.5): more excellent antibacterial activity
effect of adding NaCl on antibacterial activity ([5]; K. pneumoniae KCTC 2208, Tris or Hepes buffer with 150 mM NaCl): almost inactivated
increase of antibacterial activity versus EC340 ([5]; various K. pneumoniae strains, 2 hours): up to 1 log
MIC of endolysin combined with colistin: mtEC340 ([3]; E. coli ATCC8738, Colistin 0): >128 µg/mL
MIC of endolysin combined with colistin: mtEC340 ([3]; E. coli ATCC8738, Colistin 0.125 (row with mtEC340 16)): 16 µg/mL
MIC of endolysin combined with colistin: mtEC340 ([3]; E. coli ATCC8738, Colistin 0.125 (row with mtEC340 32)): 32 µg/mL
MIC of endolysin combined with colistin: mtEC340 ([3]; E. coli ATCC8738, Colistin 0.25): <2 µg/mL
